Results on one molecule are retold here after patent US5650412A, “HIV protease inhibitors useful for the treatment of AIDS” (Merck & Co., Inc., priority 1995, dated 1997).

The target in assay [1] is T1, HIV protease (Human immunodeficiency virus type 1 group M subtype B, UniProt P04585).
T1 construct: made in house; host or cells: Escherichia coli
Kind of assay: Inhibition of Microbial Expressed HIV Protease (protease expressed in Escherichia coli, peptide substrate, HPLC of products). It is filed as biochemical. The following applies: 50 mM Na acetate, pH 5.5, 30° C., 1 hour. The protocol:
Assay for Inhibition of Microbial Expressed HIV Protease
Inhibition studies of the reaction of the protease expressed in Eschericia coli with a peptide substrate [Val-Ser-Gln-Asn-(betanaphyl)Ala-Pro-Ile-Val, 0.5 mg/mL at the time the reaction is initiated] were in 50 mM Na acetate, pH 5.5, at 30° C. for 1 hour. Various concentrations of inhibitor in […] DMSO were added to […] of the peptide solution in water. The reaction is initiated by the addition of […] of 0.33 nM protease (0.11 ng) in a solution of 0.133M Na acetate pH 5.5 and 0.1% bovine serum albumin. The reaction was quenched with […] of 5% phosphoric acid. Products of the reaction were separated by HPLC (VYDAC wide pore 5 cm C-18 reverse phase, acetonitrile gradient, 0.1% phosphoric acid). The extent of inhibition of the reaction was determined from the peak heights of the products.

For assay [2], the system named is HIV-1. Kind of assay: Cell spread assay: inhibition of the spread of HIV in MT-4 T-lymphoid cell culture. It is filed as cell-based. The conditions noted are these: Human immunodeficiency virus 1, 72 h; MT-4 T-lymphoid cells, HIV-1 wild-type, 3 days with inhibitor, p24 accumulation; read-out: CIC95 (inhibitor concentration which reduced the spread of infection by at least 95%). The protocol:
Inhibition of the spread of HIV in cell culture was measured according to Nunberg, J. H. et al., J. Virol. 65, 4887 (1991). In this assay, MT-4 T-lymphoid cells were infected with HIV-1 (wild-type, unless otherwise indicated) by using a predetermined inoculum, and cultures were incubated for 24 h. At this time, ≤1% of the cells were positive by indirect immunofluorescence. Cells were then extensively washed and distributed into 96-well culture dishes. Serial twofold dilutions of inhibitor were added to the wells, and cultures were continued for 3 additional days. At 4 days postinfection, 100% of the cells in control cultures were infected. HIV-1 p24 accumulation was directly correlated with virus spread. The cell culture inhibitory concentration was defined as the inhibitor concentration in nanomoles/liter which reduced the spread of infection by at least 95%, or CIC95. The CIC95 for compound A is 25 nM.
INHIBITION OF VIRUS SPREAD
A. Preparation of HIV-infected MT-4 cell Suspension […]
The concentration of HIV p24 antigen is measured by an enzyme immunoassay, described as follows. Aliquots of p24 antigen to be measured are added to microwells coated with a monoclonal antibody specific for HIV core antigen. […]

In general, IC50 refers to the concentration at which inhibition is half-maximal. Read a high IC50 as a need for much substance. `COc1cc(CN2CCN(C[C@@H](O)[C@H](Cc3ccccc3)NC(=O)O[C@@H]3CCS(=O)(=O)[C@@H]3C(C)C)[C@H](C(=O)NC(C)(C)C)C2)cc2c1OCO2` [Compound A, N-tert-butyl-1-[2'(R)-hydroxy-4'-phenyl-3'(S)-[3"(R)-[1'",1'"-dioxo-2'"(R)-methylethyl]tetrahydrothienyloxycarbonylamino]butyl]-4-[(3'-methoxy-4',5'-methylenedioxyphenyl)methyl]piperazine-2(S)-carboxamide] displayed a 50% inhibitory concentration (IC50) in assay [1] of around 1.2 nM. Also, in assay [2], the IC95 worked out at 25 nM.
